From patent US20220233471A1, “PRODRUG COMPOSITIONS AND METHODS OF TREATMENT” (AQUESTIVE THERAPEUTICS, INC., priority 2021, published 2022)
Entries after “also recorded” stand apart in the source; their conditions may differ.

Assays:
[1] = stability in sodium metabisulfite; assay type: physicochemical
Text: A prodrug can present improved hydrophobicity, better permeation, dose reduction, and enhanced speed of absorption. It can also provide alternative compositions with unique stability profiles. […] A prodrug that is not absorbed in the stomach can also avoid, minimize or eliminate the side effect of epigastric pain. Moreover, a prodrug can result in reduced adrenergic receptor binding, resulting in reduced variability of vasoconstriction and more stability.

[2] = excipient compatibility study with dry powder inhalation carriers; assay type: physicochemical
Method: Compatibility of epinephrine prodrugs Disobutyryl L-epinephrine (AQEP-09) and Dipivefrin was studied with common carriers used for dry powder inhalation applications. Lactose monohydrate, Lactose anhydrous and Mannitol were used for the stability evaluation. Mixtures of the micronized API and the carriers were tested under stability conditions, 25° C./60%RH and 40° C./75%RH.

[3] = esterase hydrolysis assay in human BAL fluid (prodrug stability); assay type: in vitro ADME; conditions: Human BAL fluid from 2 subjects; 1 μM; stabilizer sodium metabisulfite 8.9 mM; LC-MS
Method: Epinephrine prodrugs were evaluated. In vitro inhalation models were employed.
Hydrolysis of dipivefrin or AQEP-09 was studied in vitro in Human BAL fluid by measuring the epinephrine concentration. Frozen BAL fluid was used from 2 subjects. Compounds were incubated at 1 μM in the presence of a stabilizer (sodium metabisulfite, 8.9 mM). Samples were removed after stopping the enzyme reaction using NaF or SigmaFast at different timepoints. Samples were extracted and analyzed by LC-MS method. […] Less than 5% hydrolysis was observed.

[4] = tested on: 3D culture model (EpiAirways, MatTek) of human lung epithelial cells
Method: (§1) Epinephrine prodrugs were evaluated. In vitro inhalation models were employed. In particular, an esterase hydrolysis assay was employed using human branchoalveolar lavage (BAL) fluid to examine prodrug stability. A permeability assay using in vitro a 3D culture model (EpiAirways, MatTek) of human lung epithelial cells was also performed. The 3D culture system mimics the structure of lungs, allowing for study of the hydrolysis of prodrugs in the lungs by esterases and the systemic permeability data. The EpiAirway 3D culture includes a ciliated apical surface, mucociliary epithelium and microporous membrane.
In vitro permeability of the 3D culture was studied.
The Franz diffusion cell apparatus consists of two chambers separated by a membrane. The permeation studies were conducted using the 3D lung cell culture. The tissue membrane separates the donor compartment containing the prodrug and the receptor compartment containing the collection media whish was selected to provide sink conditions throughout the experiment.
(§2) Compounds were incubated at different concentrations (5 mM, 10 mM, and 50 mM). Cell viability was assessed by LDH Cytotoxicity Detection kit (Takara # MK401) and MTT tissue viability assay kit (MatTek, # MTT-100). Receiver media were removed at different timepoints, 0.5, 1, 2, 3, 4, 6 hrs to test permeability; Samples were extracted and analyzed by an LC-MS method.
(§3) Referring to FIGS. 3C-3D Dipivefrin and AQEP-09 toxicity and permeability using human lung epithelial cells was also studied in the EpiAirway model. Compounds were incubated at different concentrations (0.1 mM, 1 mM, 2 mM) and cell viability was assessed by LDH release assay and MTT assay. See, e.g., Aysun Adan, Yağmur Kiraz and Yusuf Baran, “Cell Proliferation and Cytotoxicity Assays”, Current Pharmaceutical Biotechnology (2016) 17: 1213, which is incorporated by reference in its entirety. Receiver media were removed at different timepoints, 1, 2, 3, 4 hrs to test permeability. Samples were extracted and analyzed by LC-MS method.

[5] = particle size distribution of jet-milled (micronized) prodrugs; assay type: physicochemical; conditions: feed rate 840 g/hr
Method: Both dipivefrin and Diisobutyryl L-epinephrine were micronized using the jet milling process using nitrogen. The effect of pressure and feed rates were determined. The particle sizes of the micronized material are shown in the Table 1 and micronized/milled material suitable for drug powder inhalation (2-5 μm) were manufactured.

[6] = aerodynamic particle size of exposure aerosol (Aerodynamic Particle Sizer); assay type: physicochemical; conditions: exposure aerosol of micronized powder
Text: Mass median aerodynamic diameter (MMAD) of AQEP-09 was 1.57 μm (Geometric Standard Deviation (GSD) 1.74) and MMAD for Dipivefrin was 1.47 μm (GSD 2.63).

[7] = tested on: human lung epithelial cells; assay: LDH cytotoxicity / release assay in EpiAirway 3D culture; assay type: cell-based; conditions: for toxicity / cell viability in the LDH assay: 0.1 mM, 1 mM, 2 mM; for cell viability in the LDH assay: 5 mM, 10 mM, 50 mM
Method: as §1, §2, §3

[8] = pharmacokinetics of epinephrine in Beagle dogs after bolus inhalation of prodrugs or IM EpiPen; assay type: in vivo; conditions: inhalation 0.4 vs 0.2 mg/kg (target 2×)
[9] = Lactose Anhydrous, 25° C./60% RH, 0 weeks
[10] = Lactose Anhydrous, 25° C./60% RH, 2 weeks
[11] = Lactose Anhydrous, 25° C./60% RH, 4 weeks
[12] = Lactose Anhydrous, 40° C./75% RH, 0 weeks
[13] = Lactose Anhydrous, 40° C./75% RH, 2 weeks
[14] = Lactose Anhydrous, 40° C./75% RH, 4 weeks
[15] = Lactose Monohydrate, 25° C./60% RH, 0 weeks
[16] = Lactose Monohydrate, 25° C./60% RH, 2 weeks
[17] = Lactose Monohydrate, 25° C./60% RH, 4 weeks
[18] = Lactose Monohydrate, 40° C./75% RH, 0 weeks
[19] = Lactose Monohydrate, 40° C./75% RH, 2 weeks
[20] = Lactose Monohydrate, 40° C./75% RH, 4 weeks
[21] = Mannitol, 25° C./60% RH, 0 weeks
[22] = Mannitol, 25° C./60% RH, 2 weeks
[23] = Mannitol, 25° C./60% RH, 4 weeks
[24] = Mannitol, 40° C./75% RH, 0 weeks
[25] = Mannitol, 40° C./75% RH, 2 weeks
[26] = Mannitol, 40° C./75% RH, 4 weeks
[27] = nitrogen milling pressure 1.5 bar
[28] = nitrogen milling pressure 3.5 bar

Row | Assay (Percent Label Claim) [2, 9] | Assay (Percent Label Claim) [2, 10] | Assay (Percent Label Claim) [2, 11] | Assay (Percent Label Claim) [2, 12] | Assay (Percent Label Claim) [2, 13] | Assay (Percent Label Claim) [2, 14] | Assay (Percent Label Claim) [2, 15] | Assay (Percent Label Claim) [2, 16] | Assay (Percent Label Claim) [2, 17] | Assay (Percent Label Claim) [2, 18] | Assay (Percent Label Claim) [2, 19] | Assay (Percent Label Claim) [2, 20] | Assay (Percent Label Claim) [2, 21] | Assay (Percent Label Claim) [2, 22] | Assay (Percent Label Claim) [2, 23] | Assay (Percent Label Claim) [2, 24] | Assay (Percent Label Claim) [2, 25] | Assay (Percent Label Claim) [2, 26] | hydrolysis to epinephrine [3] | Particle size d10 [5, 27] | SMILES | also measured
1 | 100% | 100% | 96% | 100% | 99% | 95% | 100% | 101% | 96% | 100% | 96% | 81% | 100% | 101% | 98% | 100% | 101% | 95% | minimal hydrolysis | d10-0.91 μm | CNCC(O)c1ccc(OC(=O)C(C)(C)C)c(OC(=O)C(C)(C)C)c1 (stereo not drawn) [Dipivefrin] | stability in sodium metabisulfite [1]: unstable; permeability in human lung model [4]: dose dependent permeability; Particle size d50 [5, 27]: d50-6.24 μm; Particle size d90 [5, 27]: d90-13.18 μm; Particle size d10 [5, 28]: d10-0.53 μm; Particle size d50 [5, 28]: d50-1.27 μm; Particle size d90 [5, 28]: d90-2.92 μm; GSD [6]: 2.63; MMAD [6]: 1.47 μm; toxicity / cell viability in the LDH assay [7]: lower cell viability; cell viability in the LDH assay ([7]; 6 h): cell viability was reduced at all doses; cell viability in the LDH assay ([7]; 24 hr): viability was improved
2 | 100% | 103% | 103% | 100% | 97% | 87% | 100% | 100% | 97% | 100% | 94% | 83% | 100% | 96% | 96% | 100% | 95% | 84% | minimal hydrolysis | d10-10.30 μm | CNCC(O)c1ccc(OC(=O)C(C)C)c(OC(=O)C(C)C)c1 [AQEP-09, Diisobutyryl L-epinephrine] | Overall dose response [8]: slightly less than dose proportional; permeability compared to Dipivefrin [4]: lower permeability; increase in dose that shows comparable permeability to Dipivefrin ([4]; human): 50%; Particle size d50 [5, 27]: d50-55.70 μm; Particle size d90 [5, 27]: d90-132.75 μm; Particle size d10 [5, 28]: d10-0.46 μm; Particle size d50 [5, 28]: d50-1.12 μm; Particle size d90 [5, 28]: d90-2.37 μm; GSD [6]: 1.74; MMAD [6]: 1.57 μm; toxicity / cell viability in the LDH assay [7]: did not show any toxicity; also recorded: no or less toxicity
